In patent US20240125729A1, “METHODS AND RELATED ASPECTS OF DETECTING TARGET MOLECULES USING CYCLIC VOLTAMMETRY” (THE JOHNS HOPKINS UNIVERSITY, priority 2021, published 2024):
“And” between values parts separate entries of the source, which are not always exact repeats. Equal entries are not always repeated.

Assays:
procaine-binding aptamer [1] = assay: Square wave voltammetry calibration of procaine-binding E-AB sensors; conditions: 100 Hz, amplitude 50 mV, step 1 mV, read-out: KD (dissociation constant) by square-wave voltammetry
Method: FIG. 12 is a plot showing a calibration curve for procaine-binding E-AB sensors obtained by square wave voltammetry. The Hill's coefficient and dissociation constant obtained were 0.97±0.05 and 1.9±0.2 mM, respectively. Each point represents the average of 5·measurements at a frequency of 100 Hz, amplitude of 50 mV, and step potential of 1 mV.
These sequences were purchased modified on the 5′end with hexanethiol and on the 3′end with MB, and double HPLC purified. To prepare aptamer solutions for electrode modification, 1 μL of 100 μM of the modified sequences was incubated with 2 μL of 5 mM TCEP solution in water for 1 hour to reduce the disulfide bonds. Then, we diluted the aptamer solutions in 1 mM 6-mercaptohexanol aqueous solution to a final aptamer concentration of 500 nM.
Electrochemical measurements. Gold working (PN 002314, d=1.6 mm) and coiled platinum wire counter electrodes (PN 012961) were purchased from ALS Inc. (Japan). Ag/AgCl (1M KCl) reference electrodes (PN CHI111) were purchased from CH Instruments (USA). […] Cyclic voltammograms were recorded at different scan rates in the potential window from −0.5 V to +0.1 V vs Ag/AgCl (1M KCl). Square-wave voltammograms were recorded from 0 V to −0.5 V vs Ag/AgCl (1M KCl) with an amplitude of 50 mV, a step size of 1 mV, and at 300 Hz. […]
(§1) Electrode modification. […] After rinsing with water, electrodes were ready for use. […]

procaine-binding aptamer [2] = assay: Cyclic voltammetry ΔEP interrogation of procaine-detecting E-AB sensors in undiluted serum
Method: (§2) ΔEP-based interrogation of E-AB sensors supports molecular measurements in complex media such as undiluted serum. Moreover, the approach can be used to interrogate E-AB sensors detecting different molecular targets. […] Furthermore, the relative change in ΔEP at 10 mM tobramycin was 30% less than the gain seen in phosphate-buffered saline. Both of these effects were previously reported for serum tobramycin E-AB measurements performed by chronoamperometry, confirming that ΔEP is not more prone to fouling than, for example, chronoamperometric current decay lifetimes. […] Last, procaine-detecting E-AB sensors presented the largest change in ΔEP, corresponding to a relative decrease of ˜80% at saturating procaine concentrations (FIG. 11C). Based on our calibration curve, the procaine-binding aptamer has a KD of ˜500 μM, slightly better than the affinity obtained by, for example, square-wave voltammetry (KD˜2 mM, FIG. 12). […]
(§3) Electrochemical measurements. […] Cyclic voltammograms were recorded at different scan rates in the potential window from −0.5 V to +0.1 V vs Ag/AgCl (1M KCl). Square-wave voltammograms were recorded from 0 V to −0.5 V vs Ag/AgCl (1M KCl) with an amplitude of 50 mV, a step size of 1 mV, and at 300 Hz. […]
as §1

[3] = tested on: tobramycin-binding aptamer; assay: Cyclic voltammetry (ΔEP / IP) interrogation of tobramycin-detecting E-AB sensors
Source text: The magnitude of ΔEP in cyclic voltammetry can be used to interrogate changes in the apparent electron transfer kinetics of E-AB sensors. ΔEP is affected by a mass transfer (diffusional) component related to the conformation switching behavior of aptamers; thus, measured changes in ΔEP reflect target-binding induced changes in aptamer conformation. We first illustrate this effect employing tobramycin-detecting E-AB sensors (FIG. 5), which have been extensively validated in the literature and represent a well-understood model system. In these E-AB sensors, interrogation by cyclic voltammetry in the absence of target and at voltage scanning rates of ˜1-10 V·s^−1 results in voltammograms with a ΔEP ˜100 mV (FIG. 5A). However, the addition of a saturating concentration of tobramycin (10 mM) causes a significant increase in apparent electron transfer kinetics with a concomitant decrease in ΔEP to ˜30 mV (FIG. 5A, B). Similar measurements at varying tobramycin concentrations can be translated into dose-response curves (FIG. 5C). The dissociation constant estimated by extrapolating the mid-point of these dose-response curves to the x-axis, KD˜80 μM, is similar to previously reported KD measurements based on chronoamperometric and differential pulse measurements.
As with all E-AB interrogation methods, there is a tradeoff between the maximum signal gain observed by ΔEP and the apparent dissociation constant of the sensors. To illustrate this, we measured dose-response curves as shown in FIG. 5C at scanning rates ranging from 0.5 to 100 V·s^−1 (FIG. 6). Then, we determined the apparent dissociation constant at each scanning rate by performing a non-linear regression of the data sets using the Hill isotherm. […] Moreover, the shape of the voltammograms was distorted at fast scanning rates, preventing the accurate determination of ΔEP (FIG. 8). Thus, taking into consideration the results presented in FIGS. 7A and B, we determined that the best CV interrogation rate for tobramycin-detecting E-AB sensor was 5 V·s^−1.
E-AB interrogation via ΔEP achieves larger signal gains relative to interrogation based on CV peak heights. To illustrate this point, we measured dose-response curves at the optimal voltage scanning rate of 5 V·s^−1 and compared the response based on voltammogram peak currents, IP, at varying tobramycin concentrations relative to the proposed ΔEP-based method (FIG. 7C). To achieve a direct comparison between approaches, we calculated the relative change in signal at each concentration with respect to the signal measured in the absence of target (this is common practice in the field). By graphing IP vs concentration, we observed a ‘signal-on’ type of response, with IP increasing to a plateau of 20% relative signal change at saturation. Using ΔEP, in contrast, we observed a ‘signal-off’ type of response, with ΔEP decreasing by 80% relative signal change at saturation. […] On the other hand, ΔEP provides a signal-off response that is less desirable than the signal-on response achieved by monitoring IP. Typically, the use of signal-off sensing is sub-optimal for continuous monitoring in complex fluids, as matrix effects can induce signal decreases unrelated to fluctuations in target concentration that can be confounding during sensing.
ΔEP-based interrogation of E-AB sensors supports molecular measurements in complex media such as undiluted serum. Moreover, the approach can be used to interrogate E-AB sensors detecting different molecular targets. […] Furthermore, the relative change in ΔEP at 10 mM tobramycin was 30% less than the gain seen in phosphate-buffered saline. Both of these effects were previously reported for serum tobramycin E-AB measurements performed by chronoamperometry, confirming that ΔEP is not more prone to fouling than, for example, chronoamperometric current decay lifetimes. […]

[4] = biological target: vancomycin-binding aptamer; assay: Cyclic voltammetry ΔEP interrogation of vancomycin-detecting E-AB sensors in undiluted serum
Method: as §2, §3, §1

[5] = CV 5 V·s^−1, phosphate-buffered saline, relative to no target

With CCN(CC)CCOC(=O)c1ccc(N)cc1 [procaine] the Kd (procaine-binding aptamer [1]) was 1900 µM and ~2000 µM, the Kd (procaine-binding aptamer [2]; cyclic voltammetry, read-out: KD from calibration curve (ΔEP)) was roughly 500 µM and the “relative decrease in ΔEP at saturating concentration” value (procaine-binding aptamer [2]; saturating procaine) was roughly 80%.
For NC[C@H]1O[C@H](O[C@H]2[C@H](O)[C@@H](O[C@H]3O[C@H](CO)[C@@H](O)[C@H](N)[C@H]3O)[C@H](N)C[C@@H]2N)[C@H](N)C[C@@H]1O [tobramycin], the “relative change in ΔEP in undiluted serum, less than the gain seen in phosphate-buffered saline” value ([3]; 10 mM tobramycin, undiluted serum vs phosphate-buffered saline) was 30%, the “IP (peak current) increase, relative signal change at saturation (signal-on)” value [3, 5] was 20% and the “ΔEP decrease, relative signal change at saturation (signal-off)” value [3, 5] was 80%. The Kd ([3]; CV at 5 V·s^−1, phosphate-buffered saline, Hill fit, 5 electrodes, read-out: KD (dissociation constant from ΔEP dose-response curve)) was 80 ± 7 µM, the “ΔEP (peak-to-peak separation) after target addition” value ([3]; saturating tobramycin 10 mM, without target ~100 mV, scanning rates ~1-10 V·s^−1) was roughly 30 mV and the “affinity in undiluted serum relative to phosphate-buffered saline” value ([3]; undiluted serum, ΔEP-based interrogation) was “significant decrease in affinity”.
For CN[C@H](CC(C)C)C(=O)N[C@H]1C(=O)N[C@@H](CC(N)=O)C(=O)N[C@H]2C(=O)N[C@H]3C(=O)N[C@H](C(=O)N[C@H](C(=O)O)c4cc(O)cc(O)c4-c4cc3ccc4O)[C@H](O)c3ccc(c(Cl)c3)Oc3cc2cc(c3O[C@@H]2O[C@H](CO)[C@@H](O)[C@H](O)[C@H]2O[C@H]2C[C@](C)(N)[C@H](O)[C@H](C)O2)Oc2ccc(cc2Cl)[C@H]1O [vancomycin], the Kd ([4]; read-out: KD from serum calibration curve (ΔEP)) was roughly 60 µM and the “total relative change in ΔEP at saturating concentration” value ([4]; saturating vancomycin) was roughly 50%.
